Measurements as given in US6900019B1, “In-situ cell extraction and assay method” (Amersham Biosciences UK Limited, priority 1997, dated 2005).

What was measured:
Mouse 3T3 cells = assay: Intracellular prostaglandin E2 in A23187-stimulated mouse 3T3 cells (EIA); assay type: cell-based; conditions: 100 μM A23187, 5 minutes
Description: Mouse 3T3 cells were cultured in DMEM media containing 10% (v/v) foetal calf sera (FCS). For PGE2 assays, cells were seeded into standard 96-well tissue culture plates in 100 μl volumes (between 10^5-10^6 cells/ml). Cells were cultured overnight at 37° C. in a 95% air/5% CO2 atmosphere. At this stage a check was made to ensure cells remained viable with Trypan blue exclusion.
On day 2, working solutions of A23187 (1-100 μM final concentration) were prepared in DMEM media in order to stimulate the production of PGE2. Two controls were prepared (a DMSO and a culture media only control). Here cells were cultured in the absence of A23187. Test cell cultures were stimulated with the calcium ionophore A23187 for 5 minutes at room temperature. The culture supernatant was decanted, cells were washed with phosphate buffered saline and lysed with 100 μl/well 0.5% (w/v) DTAB prepared in assay buffer. A check for cell lysis was made with a second Trypan blue exclusion test.
Working PGE2 standards (2.5-320 pg/well) were prepared in polypropylene tubes with assay buffer containing 0.5% (w/v) DTAB. […] Non-specific binding was measured in the absence of PGE2 antisera. […] The optical densities were determined with a microtitre plate spectrophotometer set at 450 nm. Intracellular PGE2 levels were determined using log/linear analysis with reference to a standard curve. […]

[1] = test system: Chinese hamster ovary (CHO) cells; assay: "Total" cellular cAMP from forskolin-stimulated CHO cells; assay type: cell-based; conditions: 100 μM forskolin, 20 minutes
Description: Chinese hamster ovary (CHO) cells were cultured in HAM's media containing 10% (v/v) foetal calf serum (FCS). For cAMP assays, cells were seeded into clear-bottomed 96-well tissue-culture plates with opaque walls (tissue-culture grade; see materials) in HAM's media, (see experiment 5) at 40 μl/well (between 10^4 and 10^6 cells/well). Cells were cultured overnight at 37° C. in a 95% air/5% CO2 atmosphere. The next day, sequestration and lysis buffers (2.5% alpha-cyclodextrin, 1% and 10% DTAB in assay buffer) were prepared. Antisera (at 1/11000 dilution), tracer (10000-20000 cpm) and SPA beads (20 mg/ml) were reconstituted with assay buffer containing 2.5% (w/v) alpha-cyclodextrin. […]
DTAB (100 μl, 1% w/v in assay buffer) was added to the non-specific binding wells. […] Following incubation, the plate was transferred directly to a TopCount™ scintillation counter and radioactivity detected. Non-specific binding was determined in the absence of specific rabbit antisera. Cyclic AMP levels were determined using log/linear analysis with reference to the standard curve. […]
Chinese hamster ovary cells were seeded at a density of 100,000 cells per well and cultured overnight to confluence in Viewplates as described under the methods section. […] The cell culture supernatant was not removed before the cell lysis step. cAMP levels were measured with the SPA radioimmunoassay procedure.

ECV304 cells = assay: Intracellular IL-6 from IL-1β stimulated ECV304 cells (ELISA); assay type: cell-based, human; conditions: 500 pg/ml IL-1β overnight
Description: ECV304 cells were cultured in M-199 media containing 10% (v/v) foetal calf sera (FCS). For IL-6 assays, cells were seeded into standard 96-well tissue culture plates in 100 μl volumes (between 10^5-10^6 cells/ml). Cells were cultured overnight at 37° C. in a 95% air/5% CO2 atmosphere. On day 2 working solutions of IL-1β (2-500 pg/ml; final concentration) were prepared in M-199 media in order to stimulate the production of IL-6. A culture media blank was prepared with cultured cells grown in the absence of IL-1β. Cells were again cultured overnight at 37° C. in a 95% air/5% CO2 atmosphere. On day 3, a 1% (wt) solution of DTAB was prepared in standard diluent. […]
Working standards (10.24400 pg/ml IL-6) were prepared in polypropylene tubes using assay buffer containing 1% (w/v) DTAB. […] Non-specific binding was measured in the absence of IL-6 (zero IL-6 standard). […] The optical density was determined with a microtitre plate spectrophotometer set at 450 nm. Interleukin-6 levels were determined using log/linear analysis with reference to a standard curve. […]
ECV304 cells were seeded at a density of 100,000 cells per well and cultured overnight to confluence in standard 96-well tissue culture plates as described under the methods section. […] Levels of IL-6 were measured in the samples with ELISA (the biotinylated antibody was prepared in the presence of 3% (w/v) alpha-cyclodextrin).

Molecule: CNc1ccc2oc(C[C@H]3O[C@@]4(CC[C@H]3C)O[C@H]([C@H](C)C(=O)c3ccc[nH]3)[C@H](C)C[C@H]4C)nc2c1C(=O)O [A23187]
- Intracellular PGE2 levels (Mouse 3T3 cells): over 400 pg/10^6 cells

Molecule: C=C[C@@]1(C)CC(=O)[C@]2(O)[C@@]3(C)[C@@H](O)CCC(C)(C)[C@@H]3[C@H](O)[C@H](OC(C)=O)[C@@]2(C)O1 [forskolin, Forskolin]
- Total cellular cAMP levels [1]: over 170 pmol/10^6 cells

Molecule: IL-1β: Interleukin-1β (Amersham, ARM 17005), used to stimulate the production of IL-6
- Intracellular IL-6 levels (ECV304 cells): over 400 pg/10^6 cells
